Results from paper PMC7615501 (Journal of immunology (Baltimore, Md. : 1950), 2021).

Legend:
CD8+ T cell clone 6C5 [1] = assay: Activation of clone 6C5 by peptide-pulsed T2 cells, MIP-1β ELISA; type: cell-based, human; settings: high purity (>95%) peptide preparations
HLA-A*0201 = HLA-A*0201 (Homo sapiens, UniProt P04439, D140Y/D185E/D98H/E176V/E277Q/G131W/G231S/I119V/I121R/I166T/I218V/L300P/L318F/N151K/N90K/P208A/P217A/Q86G/Q94H/R138H/R169H/T345S); settings: earlier work; cited from earlier work
CD8+ T cell clone 6C5 [2] = settings: earlier work; cited from earlier work

| Substance | Functional response of clone 6C5, retest with high purity preparations (CD8+ T cell clone 6C5 [1]) | Binding to HLA-A*0201 (HLA-A*0201) | Recognition by CD8+ T cell clone 6C5 (CD8+ T cell clone 6C5 [2]) |
| --- | --- | --- | --- |
| FMAYFGVSA | inert | – | – |
| LLSY(3-tBu)FGTPT | – | bound poorly to HLA-A*0201 | recognize |
| LTAYMLLAI | inert | – | – |
